According to publication PMC8355692, “Antimelanoma activities of chimeric thiazole–androstenone derivatives” (Royal Society Open Science, 2021):

How the values were obtained:
Assay type in all cases: cell-based
HFF-1 cell line = test: Toxicity for normal human foreskin fibroblast cell line; details: normal human foreskin fibroblast HFF-1; read-out: IC50 against HFF1 cell line
From the text: To assess the potential use of lead compounds as anti-melanoma agents, we tested their toxicity for the normal human foreskin fibroblast (HFF-1) cell line taking into consideration that MM is usually surrounded by the cells of this kind. The effects of some of the potent compounds on this cell line were very encouraging (table 4).

SK-MEL-5 = test: NCI DTP 60 cell line five-concentration test, melanoma panel; details: for CC50 / GI50: Homo sapiens; for CC50: SK-MEL-5, read-out: LC50 (50% lethal concentration); for GI50 / TGI (total growth inhibition): SK-MEL-5 melanoma cell line
Protocol: (§1) In our effort to develop new methodologies to synthesize bioactive compounds [11–14], we have synthesized a number of thiazole and thiazolo-androstenone derivatives. We submitted 50 of the synthesized thiazole–androstenone derivatives to the National Cancer Institute (NCI) Development Therapeutics Program (DTP) to test against 60 cancer cell lines (https://dtp.cancer.gov/). These compounds were tested for cytotoxicity at a single dose of 10 µM. […] Eight of these chimeric compounds (figure 2) were selected for further testing at five different concentrations to determine 50% growth inhibition (GI50), total growth inhibition (TGI) and 50% lethal concentration (LC50) values. […] Overall, amino-thiazole derivatives (table 1, 1–7) were more toxic to melanoma cell lines than phenyl thiazole derivatives (8). Fluoro and oxy (hydroxy and methoxy) derivatives were the potent growth inhibitors of the tested cancer cell lines. LOX IMVI cell line was the most susceptible among all the melanoma cell lines used against the tested compounds (table 1). […] Phenyl ethyl derivative (1) inhibited the growth of all the cell lines except SK-MEL-2. […] 2,4-Dimethyl substituted derivative (7) is a potent growth inhibitor of all the tested cell lines of the melanoma panel.

SK-MEL-28 = test: as above; details: for GI50 / CC50: Homo sapiens; for GI50: SK-MEL-28, SK-MEL-28 melanoma cell line; for CC50: SK-MEL-28, read-out: LC50 (50% lethal concentration); for TGI (total growth inhibition): SK-MEL-28 melanoma cell line
Protocol: as §1

UACC-257 = test: as above; details: for CC50 / GI50: Homo sapiens; for CC50: UACC-257, read-out: LC50 (50% lethal concentration)
Protocol: as §1

MALME-3M = test: as above; details: for CC50 / GI50: Homo sapiens; for CC50: Malme-3M, read-out: LC50 (50% lethal concentration); for GI50 / TGI (total growth inhibition): MALME-3M melanoma cell line
Protocol: as §1

MDA-MB-435 = test: as above; details: for CC50 / GI50: Homo sapiens; for CC50: MDA-MB-435, read-out: LC50 (50% lethal concentration); for GI50 / TGI (total growth inhibition): MDA-MB-435 melanoma cell line
Protocol: as §1

LOX IMVI = test: as above; details: for LC50 (50% lethal concentration) / GI50: Homo sapiens; for LC50 (50% lethal concentration): LOX IMVI, read-out: LC50 (50% lethal concentration); for GI50 / TGI (total growth inhibition): LOX IMVI melanoma cell line
Protocol: as §1

M14 = test: as above; details: for CC50: M14, read-out: LC50 (50% lethal concentration)
Protocol: as §1

SK-MEL-2 = test: as above; details: for LC50 (50% lethal concentration) / GI50: Homo sapiens; for LC50 (50% lethal concentration): SK-MEL-2, read-out: LC50 (50% lethal concentration); for GI50 / TGI (total growth inhibition): SK-MEL-2 melanoma cell line
Protocol: as §1

UACC-62 = test: as above; details: for LC50 (50% lethal concentration): UACC-62, read-out: LC50 (50% lethal concentration)
Protocol: as §1

[1] = Homo sapiens, M14, M14 melanoma cell line
[2] = Homo sapiens, UACC-62, UACC-62 melanoma cell line

`C[C@]12CCc3nc(Nc4ccccc4)sc3C1=CC[C@@H]1[C@@H]2CC[C@]2(C)C(=O)CC[C@@H]12` [Compound 2] gave an IC50 (HFF-1 cell line) of 21 µM, a CC50 (SK-MEL-5) of 66.2 µM and a GI50 (SK-MEL-5) of 10.2 µM. For the same compound, the “TGI (total growth inhibition)” value (SK-MEL-5) was 26.0 µM, the GI50 (SK-MEL-28) was 20.5 µM and the CC50 (SK-MEL-28) was greater than 100 µM. The “TGI (total growth inhibition)” value (SK-MEL-28) was greater than 100 µM, the CC50 (UACC-257) was greater than 100 µM and the GI50 (UACC-257; UACC-257 melanoma cell line) was 23.8 µM. The “TGI (total growth inhibition)” value (UACC-257; UACC-257 melanoma cell line) was 94.5 µM, the CC50 (MALME-3M) was greater than 100 µM and the GI50 (MALME-3M) was 21.2 µM. For the same compound, the “TGI (total growth inhibition)” value (MALME-3M) was greater than 100 µM, the CC50 (MDA-MB-435) was greater than 100 µM and the GI50 (MDA-MB-435) was 3.49 µM. The “TGI (total growth inhibition)” value (MDA-MB-435) was greater than 100 µM, the LC50 (50% lethal concentration) (LOX IMVI) was 48.1 µM and the GI50 (LOX IMVI) was 3.22 µM. The “TGI (total growth inhibition)” value (LOX IMVI) was 10.8 µM, the GI50 (M14; [1]) was less than 10 µM and the CC50 (M14; Homo sapiens) was greater than 100 µM. For the same compound, the GI50 (M14; M14 melanoma cell line) was 7.88 µM, the “TGI (total growth inhibition)” value (M14; M14 melanoma cell line) was 50.9 µM and the LC50 (50% lethal concentration) (SK-MEL-2) was greater than 100 µM. The GI50 (SK-MEL-2) was 17.1 µM, the “TGI (total growth inhibition)” value (SK-MEL-2) was 60.8 µM and the GI50 (UACC-62; [2]) was less than 10 µM. The LC50 (50% lethal concentration) (UACC-62; Homo sapiens) was 89.7 µM, the GI50 (UACC-62; UACC-62 melanoma cell line) was 9.54 µM and the “TGI (total growth inhibition)” value (UACC-62; UACC-62 melanoma cell line) was 29.6 µM.
With `Cc1ccc(Nc2nc3c(s2)C2=CC[C@@H]4[C@H](CC[C@]5(C)C(=O)CC[C@@H]45)[C@@]2(C)CC3)c(C)c1` [Compound 7] the IC50 (HFF-1 cell line) was 40 µM, the CC50 (SK-MEL-5) was 7.47 µM and the GI50 (SK-MEL-5) was 1.86 µM. For the same compound, the “TGI (total growth inhibition)” value (SK-MEL-5) was 3.73 µM, the GI50 (SK-MEL-28) was 2.31 µM and the CC50 (SK-MEL-28) was greater than 100 µM. The “TGI (total growth inhibition)” value (SK-MEL-28) was 6.08 µM, the CC50 (UACC-257) was greater than 100 µM and the GI50 (UACC-257; UACC-257 melanoma cell line) was 3.7 µM. For the same compound, the CC50 (MALME-3M) was greater than 100 µM, the GI50 (MALME-3M) was 1.99 µM and the “TGI (total growth inhibition)” value (MALME-3M) was 5.55 µM. The CC50 (MDA-MB-435) was greater than 100 µM, the GI50 (MDA-MB-435) was 3.02 µM and the “TGI (total growth inhibition)” value (MDA-MB-435) was greater than 100 µM. The LC50 (50% lethal concentration) (LOX IMVI) was 5.96 µM, the GI50 (LOX IMVI) was 1.64 µM and the “TGI (total growth inhibition)” value (LOX IMVI) was 3.13 µM. For the same compound, the GI50 (M14; [1]) was 1.85 µM, the CC50 (M14; Homo sapiens) was greater than 100 µM and the “TGI (total growth inhibition)” value (M14; M14 melanoma cell line) was 3.79 µM. For the same compound, the LC50 (50% lethal concentration) (SK-MEL-2) was 22.7 µM, the GI50 (SK-MEL-2) was 2.19 µM and the “TGI (total growth inhibition)” value (SK-MEL-2) was 4.74 µM. The GI50 (UACC-62; [2]) was 1.72 µM, the LC50 (50% lethal concentration) (UACC-62; Homo sapiens) was 9.02 µM and the “TGI (total growth inhibition)” value (UACC-62; UACC-62 melanoma cell line) was 3.94 µM.
